# System: mouse antiserum
# Assay: ic-ELISA serum titer and inhibition rate of mice for the fusion experiment (Table S2)
# Format: binding
# Details: prometryn 1000 ng/mL
# Method: The Institute of Quality Standards and Testing Technology for Agro-Products’ Experimental Animal Welfare and Ethical Committee (IQSTAP-2021-05) approved the use of animals in experiments. The buffer solution (0.01 M PBS, pH = 7.4) was used to dilute the immunogen (2 mg/mL) to 1 mg/mL. After that, Freund’s adjuvant was added to an identical volume of 0.1 mL in a sterile glass vial. The mixture was placed on a magnetic stirrer and stirred and mixed rapidly in an ice bath to fully emulsify. Six 7-week-old female BALB/c mice were selected for immunization. At the beginning of the third immunization, 3–5 days after each immunization, blood was taken from the orbit, incubated at 37 °C for 0.5 h and 4 °C for 2 h, and centrifuged at 1000 r/min for 10 min. Serum was collected, and the serum titer was determined. The immune strategy of mice was the same as that previously reported. Freund’s […] vaccination, and for the subsequent booster vaccination, Freund’s incomplete adjuvant was utilized. Freund’s adjuvant and immunogen during immunization should be 1:1 and thoroughly mixed until dripping into the water to prevent diffusion. The interval of booster immunization was 2 weeks, and the immune dose was 0.1 mg. Three days before fusion, the mice with the best performance were immunized with a dose of 0.05 mg. The mice were intraperitoneally injected without adjuvant.
# The ic-ELISA method was used to screen the best-performing fusion mouse sera. They were used to establish the standard curve of antibodies by detecting the supernatant of positive cells. The buffer required for ic-ELISA was the same as previously reported. The specific steps of the operation are as follows: (1) The coated antigen was added to the microplate by diluting it with the required coating solutions (CBS, pH 9.6, 0.05 mol/L). Each well contained 100 µL, which was incubated at 37 °C for three h before being washed three times with washing buffer (PBST, PBS containing 0.1% Tween-20). (2) With sample dilution buffer (PBSTG, PBST containing 0.1% gelatin), the standard prometryn sample and the antiserum/antibody from mice were diluted to the required concentration. The microplate was incubated for 30 min at 37 °C with 50 µL of diluted antiserum or antibody and standard samples of various concentrations. PBST was used three times to wash the dishes. (3) Then, 100 µL of PBSTG-diluent IgG HRP (labeled goat anti-mouse IgG with HRP) was added to each well. After 30 min at 37 °C, the plate was cleaned three times with PBST. (4) Each well was incubated for 15 min in the dark at 25 °C with 100 µL of TMB color developing solution. To stop the reaction, 50 µL of the hydrochloric acid solution was added to each well. The absorbance at OD450 nm was measured with a TECAN Infinite M200 PRO microplate reader from Männedorf, Switzerland.
# Ic-ELISA was used to measure the inhibition rate and serum titer of six immunized mice. Three days before cell fusion, Balb/c mice with the highest performance were selected and immunized. SP2/0 myeloma cells and mouse spleen cells were combined for fusion. After fusion, the supernatant of hybridoma cells was determined by indirect competitive enzyme-linked immunosorbent assay, the positive wells were screened, and the hybridoma cells were cloned to obtain hybridoma cell lines that can stably secrete monoclonal antibodies against prometryn. After the positive cell lines were expanded and cultured, mice treated with paraffin 7 days earlier were injected intraperitoneally. Ascites were collected after abdominal swelling and centrifuged at 4 °C at 1000 rpm, and the potency and inhibition rate of ascites were determined and frozen at −20 °C for purification. The 7D4 mAb against prometryn was obtained by purifying the […] with the octanoic acid-saturated ammonium sulfate method. […]
smiles,measurement,setting,value
"CSc1nc(NC(C)C)nc(NC(C)C)n1 [Prometryn, 2-methylthio-4,6-di(isopropylamino)-1,3,5-triazobenzene]",IR (inhibition rate),"dilution of immunogen 1×103, serum dilution 1.28×105",-7.66%
same,IR (inhibition rate),"dilution of immunogen 1×103, serum dilution 1.6×104",65.86%
same,IR (inhibition rate),"dilution of immunogen 1×103, serum dilution 2×103",85.70%
same,IR (inhibition rate),"dilution of immunogen 1×103, serum dilution 2.56×105",75.15%
same,IR (inhibition rate),"dilution of immunogen 1×103, serum dilution 3.2×104",46.44%
same,IR (inhibition rate),"dilution of immunogen 1×103, serum dilution 4×103",88.04%
same,IR (inhibition rate),"dilution of immunogen 1×103, serum dilution 6.4×104",35.52%
same,IR (inhibition rate),"dilution of immunogen 1×103, serum dilution 8×103",81.46%
same,IR (inhibition rate),"dilution of immunogen 1.6×104, serum dilution 1.28×105",-52.80%
same,IR (inhibition rate),"dilution of immunogen 1.6×104, serum dilution 1.6×104",58.64%
same,IR (inhibition rate),"dilution of immunogen 1.6×104, serum dilution 2×103",85.05%
same,IR (inhibition rate),"dilution of immunogen 1.6×104, serum dilution 2.56×105",71.56%
same,IR (inhibition rate),"dilution of immunogen 1.6×104, serum dilution 3.2×104",28.55%
same,IR (inhibition rate),"dilution of immunogen 1.6×104, serum dilution 4×103",82.62%
same,IR (inhibition rate),"dilution of immunogen 1.6×104, serum dilution 6.4×104",11.18%
same,IR (inhibition rate),"dilution of immunogen 1.6×104, serum dilution 8×103",81.51%
same,IR (inhibition rate),"dilution of immunogen 2×103, serum dilution 1.28×105",14.21%
same,IR (inhibition rate),"dilution of immunogen 2×103, serum dilution 1.6×104",61.99%
same,IR (inhibition rate),"dilution of immunogen 2×103, serum dilution 2×103",85.14%
same,IR (inhibition rate),"dilution of immunogen 2×103, serum dilution 2.56×105",74.90%
same,IR (inhibition rate),"dilution of immunogen 2×103, serum dilution 3.2×104",51.64%
same,IR (inhibition rate),"dilution of immunogen 2×103, serum dilution 4×103",86.95%
same,IR (inhibition rate),"dilution of immunogen 2×103, serum dilution 6.4×104",10.11%
same,IR (inhibition rate),"dilution of immunogen 2×103, serum dilution 8×103",79.58%
same,IR (inhibition rate),"dilution of immunogen 3.2×104, serum dilution 1.28×105",17.80%
same,IR (inhibition rate),"dilution of immunogen 3.2×104, serum dilution 1.6×104",74.44%
same,IR (inhibition rate),"dilution of immunogen 3.2×104, serum dilution 2×103",84.75%
same,IR (inhibition rate),"dilution of immunogen 3.2×104, serum dilution 2.56×105",72.21%
same,IR (inhibition rate),"dilution of immunogen 3.2×104, serum dilution 3.2×104",51.77%
same,IR (inhibition rate),"dilution of immunogen 3.2×104, serum dilution 4×103",68.48%
same,IR (inhibition rate),"dilution of immunogen 3.2×104, serum dilution 6.4×104",28.68%
same,IR (inhibition rate),"dilution of immunogen 3.2×104, serum dilution 8×103",80.75%
same,IR (inhibition rate),"dilution of immunogen 4×103, serum dilution 1.28×105",7.62%
same,IR (inhibition rate),"dilution of immunogen 4×103, serum dilution 1.6×104",63.91%
same,IR (inhibition rate),"dilution of immunogen 4×103, serum dilution 2×103",86.78%
same,IR (inhibition rate),"dilution of immunogen 4×103, serum dilution 2.56×105",78.43%
same,IR (inhibition rate),"dilution of immunogen 4×103, serum dilution 3.2×104",47.70%
same,IR (inhibition rate),"dilution of immunogen 4×103, serum dilution 4×103",87.39%
same,IR (inhibition rate),"dilution of immunogen 4×103, serum dilution 6.4×104",24.90%
same,IR (inhibition rate),"dilution of immunogen 4×103, serum dilution 8×103",81.74%
same,IR (inhibition rate),"dilution of immunogen 8×103, serum dilution 1.28×105",7.17%
same,IR (inhibition rate),"dilution of immunogen 8×103, serum dilution 1.6×104",58.20%
same,IR (inhibition rate),"dilution of immunogen 8×103, serum dilution 2×103",87.26%
same,IR (inhibition rate),"dilution of immunogen 8×103, serum dilution 2.56×105",59.68%
same,IR (inhibition rate),"dilution of immunogen 8×103, serum dilution 3.2×104",15.68%
same,IR (inhibition rate),"dilution of immunogen 8×103, serum dilution 4×103",84.15%
same,IR (inhibition rate),"dilution of immunogen 8×103, serum dilution 6.4×104",7.82%
same,IR (inhibition rate),"dilution of immunogen 8×103, serum dilution 8×103",76.22%

# Reference: paper PMC9855386, “Obtaining a Monoclonal Antibody against a Novel Prometryn-Like Hapten and Characterization of Its Selectivity for Triazine Herbicides” (Biosensors, 2022)
